This note sets out measurements from ChEMBL document CHEMBL4477225, “Development of a cell viability assay to assess drug metabolite structure-toxicity relationships” (Bioorg Med Chem Lett, 2016).

Holding throughout (type): ADME, cell-based
What all share (conditions): recombinant enzyme

The target in data set [1] is T1, Cytochrome P450 2D6 (Homo sapiens, UniProt P10635). Kind of data set: Drug activation in human Hep3B cells assessed as human CYP2D6-mediated drug metabolism-induced cytotoxicity measured as decrease in cell viability at 113.7 uM pre-incubated with BSO for 18 hrs followed by incubation with compound for 3 hrs in presence of NADPH measured after 24 hrs in absence of compound, CYP3A4 and NADPH by cell titer-glo luminescence assay relative to BSO alone.
T1 sequence (P10635 whole entry): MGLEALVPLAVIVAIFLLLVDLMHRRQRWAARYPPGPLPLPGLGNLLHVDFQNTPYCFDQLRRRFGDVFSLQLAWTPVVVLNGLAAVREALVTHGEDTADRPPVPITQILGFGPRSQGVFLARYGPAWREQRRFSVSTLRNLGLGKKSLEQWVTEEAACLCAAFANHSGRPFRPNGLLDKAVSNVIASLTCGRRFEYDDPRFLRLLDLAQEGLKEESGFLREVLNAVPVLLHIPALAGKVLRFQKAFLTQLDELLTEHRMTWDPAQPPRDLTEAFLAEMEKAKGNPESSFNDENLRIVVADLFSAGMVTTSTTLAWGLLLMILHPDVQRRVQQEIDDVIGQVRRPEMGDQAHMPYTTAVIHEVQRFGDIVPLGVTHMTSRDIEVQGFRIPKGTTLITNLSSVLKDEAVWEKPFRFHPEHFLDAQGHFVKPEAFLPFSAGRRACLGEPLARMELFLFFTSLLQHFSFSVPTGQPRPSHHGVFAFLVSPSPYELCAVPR

Data set [2] addresses T2, Cytochrome P450 3A4 (Homo sapiens, UniProt P08684). Description: Drug activation in human Hep3B cells assessed as human CYP3A4-mediated drug metabolism-induced cytotoxicity measured as decrease in cell viability at 90.1 uM pre-incubated with BSO for 18 hrs followed by incubation with compound for 3 hrs in presence of NADPH measured after 24 hrs in absence of compound, CYP3A4 and NADPH by cell titer-glo luminescence assay relative to BSO alone.

Data set [3] deals with T3, Cytochrome P450 2C9 (Homo sapiens, UniProt P11712). Kind of data set: Drug activation in human Hep3B cells assessed as human CYP2C9-mediated drug metabolism-induced cytotoxicity measured as decrease in cell viability at 174.8 uM pre-incubated with BSO for 18 hrs followed by incubation with compound for 3 hrs in presence of NADPH measured after 24 hrs in absence of compound, CYP3A4 and NADPH by cell titer-glo luminescence assay relative to BSO alone.
T3 sequence (P11712 whole entry): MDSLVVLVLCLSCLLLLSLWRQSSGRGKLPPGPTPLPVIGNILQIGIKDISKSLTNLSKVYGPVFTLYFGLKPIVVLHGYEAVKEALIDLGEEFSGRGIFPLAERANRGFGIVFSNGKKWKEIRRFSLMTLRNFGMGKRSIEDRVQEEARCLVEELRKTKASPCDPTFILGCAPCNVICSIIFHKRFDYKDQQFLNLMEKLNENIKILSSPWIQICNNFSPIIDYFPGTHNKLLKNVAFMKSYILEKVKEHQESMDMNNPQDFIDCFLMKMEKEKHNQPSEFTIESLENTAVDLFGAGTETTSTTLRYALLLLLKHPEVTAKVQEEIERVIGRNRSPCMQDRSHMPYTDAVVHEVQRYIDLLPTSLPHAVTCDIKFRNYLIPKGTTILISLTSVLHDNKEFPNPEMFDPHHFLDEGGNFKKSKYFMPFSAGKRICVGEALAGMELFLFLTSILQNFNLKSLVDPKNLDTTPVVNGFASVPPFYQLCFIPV

The target of data set [4] is T3, Cytochrome P450 2C9. Description: Drug activation in human Hep3B cells assessed as human CYP2C9-mediated drug metabolism-induced cytotoxicity measured as decrease in cell viability at 34 uM pre-incubated with BSO for 18 hrs followed by incubation with compound for 3 hrs in presence of NADPH measured after 24 hrs in absence of compound, CYP3A4 and NADPH by cell titer-glo luminescence assay relative to BSO alone.

For data set [5], the target named is T3, Cytochrome P450 2C9. Kind of data set: Drug activation in human Hep3B cells assessed as human CYP2C9-mediated drug metabolism-induced cytotoxicity measured as decrease in cell viability at 49.7 uM pre-incubated with BSO for 18 hrs followed by incubation with compound for 3 hrs in presence of NADPH measured after 24 hrs in absence of compound, CYP3A4 and NADPH by cell titer-glo luminescence assay relative to BSO alone.

Data set [6] has as its target T2, Cytochrome P450 3A4. Kind of data set: Drug activation in human Hep3B cells assessed as human CYP3A4-mediated drug metabolism-induced cytotoxicity measured as decrease in cell viability at 29.6 uM pre-incubated with BSO for 18 hrs followed by incubation with compound for 3 hrs in presence of NADPH measured after 24 hrs in absence of compound, CYP3A4 and NADPH by cell titer-glo luminescence assay relative to BSO alone.

The target in data set [7] is T1, Cytochrome P450 2D6. Description: Drug activation in human Hep3B cells assessed as human CYP2D6-mediated drug metabolism-induced cytotoxicity measured as decrease in cell viability at 79.2 uM pre-incubated with BSO for 18 hrs followed by incubation with compound for 3 hrs in presence of NADPH measured after 24 hrs in absence of compound, CYP3A4 and NADPH by cell titer-glo luminescence assay relative to BSO alone.

Data set [8] has as its target T3, Cytochrome P450 2C9. Description: Drug activation in human Hep3B cells assessed as human CYP2C9-mediated drug metabolism-induced cytotoxicity measured as decrease in cell viability at 9.1 uM pre-incubated with BSO for 18 hrs followed by incubation with compound for 3 hrs in presence of NADPH measured after 24 hrs in absence of compound, CYP3A4 and NADPH by cell titer-glo luminescence assay relative to BSO alone.

Data set [9] has as its target T1, Cytochrome P450 2D6. Description: Drug activation in human Hep3B cells assessed as human CYP2D6-mediated drug metabolism-induced cytotoxicity measured as decrease in cell viability at 13 uM pre-incubated with BSO for 18 hrs followed by incubation with compound for 3 hrs in presence of NADPH measured after 24 hrs in absence of compound, CYP3A4 and NADPH by cell titer-glo luminescence assay relative to BSO alone.

Data set [10] concerns the target T3, Cytochrome P450 2C9. Description: Drug activation in human Hep3B cells assessed as human CYP2C9-mediated drug metabolism-induced cytotoxicity measured as decrease in cell viability at 452.5 uM pre-incubated with BSO for 18 hrs followed by incubation with compound for 3 hrs in presence of NADPH measured after 24 hrs in absence of compound, CYP3A4 and NADPH by cell titer-glo luminescence assay relative to BSO alone.

Data set [11] concerns the target T1, Cytochrome P450 2D6. Description: Drug activation in human Hep3B cells assessed as human CYP2D6-mediated drug metabolism-induced cytotoxicity measured as decrease in cell viability at 2.1 uM pre-incubated with BSO for 18 hrs followed by incubation with compound for 3 hrs in presence of NADPH measured after 24 hrs in absence of compound, CYP3A4 and NADPH by cell titer-glo luminescence assay relative to BSO alone.

Data set [12] addresses T2, Cytochrome P450 3A4. Kind of data set: Drug activation in human Hep3B cells assessed as human CYP3A4-mediated drug metabolism-induced cytotoxicity measured as decrease in cell viability at 53.7 uM pre-incubated with BSO for 18 hrs followed by incubation with compound for 3 hrs in presence of NADPH measured after 24 hrs in absence of compound, CYP3A4 and NADPH by cell titer-glo luminescence assay relative to BSO alone.

Data set [13] addresses T1, Cytochrome P450 2D6. Kind of data set: Drug activation in human Hep3B cells assessed as human CYP2D6-mediated drug metabolism-induced cytotoxicity measured as decrease in cell viability at 52.1 uM pre-incubated with BSO for 18 hrs followed by incubation with compound for 3 hrs in presence of NADPH measured after 24 hrs in absence of compound, CYP3A4 and NADPH by cell titer-glo luminescence assay relative to BSO alone.

Data set [14] concerns the target T2, Cytochrome P450 3A4. Kind of data set: Drug activation in human Hep3B cells assessed as human CYP3A4-mediated drug metabolism-induced cytotoxicity measured as decrease in cell viability at 70.3 uM pre-incubated with BSO for 18 hrs followed by incubation with compound for 3 hrs in presence of NADPH measured after 24 hrs in absence of compound, CYP3A4 and NADPH by cell titer-glo luminescence assay relative to BSO alone.

The target of data set [15] is T3, Cytochrome P450 2C9. Description: Drug activation in human Hep3B cells assessed as human CYP2C9-mediated drug metabolism-induced cytotoxicity measured as decrease in cell viability at 88.3 uM pre-incubated with BSO for 18 hrs followed by incubation with compound for 3 hrs in presence of NADPH measured after 24 hrs in absence of compound, CYP3A4 and NADPH by cell titer-glo luminescence assay relative to BSO alone.

T2 sequence (P08684 whole entry): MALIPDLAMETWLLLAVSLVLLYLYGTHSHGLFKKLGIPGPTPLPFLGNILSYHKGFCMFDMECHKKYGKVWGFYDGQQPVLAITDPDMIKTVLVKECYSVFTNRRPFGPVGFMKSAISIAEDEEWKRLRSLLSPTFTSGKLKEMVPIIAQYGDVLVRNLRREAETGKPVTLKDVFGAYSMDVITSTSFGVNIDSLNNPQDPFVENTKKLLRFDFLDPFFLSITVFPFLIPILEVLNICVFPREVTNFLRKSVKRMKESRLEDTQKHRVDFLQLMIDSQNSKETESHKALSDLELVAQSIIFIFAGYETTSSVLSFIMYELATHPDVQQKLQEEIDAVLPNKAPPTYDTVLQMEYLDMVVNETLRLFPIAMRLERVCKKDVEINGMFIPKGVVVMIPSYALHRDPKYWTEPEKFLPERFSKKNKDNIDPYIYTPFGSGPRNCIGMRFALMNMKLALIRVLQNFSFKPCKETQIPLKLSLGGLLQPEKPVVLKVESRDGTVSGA

With `CC(C)C(=O)Nc1ccc([N+](=O)[O-])c(C(F)(F)F)c1` [FLUTAMIDE], the “fold change (FC)” value in data set [1] is on record as 1.2; in [2] it was 1.6; in data set [3], 0.8.
Regarding `CC(=O)N1CCN(c2ccc(OCC3COC(Cn4ccnc4)(c4ccc(Cl)cc4Cl)O3)cc2)CC1` (stereo not given) [KETOCONAZOLE], in data set [4], the “fold change (FC)” value stood at 1.4.
In the case of `CC(C)(O)c1ccccc1CC[C@@H](SCC1(CC(=O)O)CC1)c1cccc(/C=C/c2ccc3ccc(Cl)cc3n2)c1` [MONTELUKAST], the figures for the “fold change (FC)” value in data set [5], in data set [6] and in data set [7] were 0.7, 1.2 and 0.5, respectively.
As for `Fc1ccc([C@@H]2CCNC[C@H]2COc2ccc3c(c2)OCO3)cc1` [PAROXETINE], the entries for the “fold change (FC)” value in data set [8] and in data set [9] were 0.6 and 0.4, respectively.
For the compound `CC(C)NCC(O)COc1cccc2ccccc12` (stereo not given) [PROPRANOLOL], the “fold change (FC)” value stood at 0.6 in data set [10], 120.7 in data set [11] and 4.7 in [12].
`C=CC[C@@H]1/C=C(\C)C[C@H](C)C[C@H](OC)[C@H]2O[C@@](O)(C(=O)C(=O)N3CCCC[C@H]3C(=O)O[C@H](/C(C)=C/[C@@H]3CC[C@@H](O)[C@H](OC)C3)[C@H](C)[C@@H](O)CC1=O)[C@H](C)C[C@@H]2OC` [TACROLIMUS ANHYDROUS]: the “fold change (FC)” value in data set [13] came out at 2.2; in data set [14], 1.6; in data set [15] it was 1.3.
